In article PMC10610134, “Verubulin (Azixa) Analogues with Increased Saturation: Synthesis, SAR and Encapsulation in Biocompatible Nanocontainers Based on Ca^2+ or Mg^2+ Cross-Linked Alginate” (Pharmaceuticals, 2023):

Legend:
[1] = system: immortalized human embryonic kidney cell line HEK293T; experiment: MTT cytotoxicity assay, HEK293T; format: cell-based; conditions: HEK-293T, 64 h treatment, MTT, read-out: IC50, nM HEK293T
Excerpt: The obtained series of verubulin analogues 2a–r (which also included three by-products isolated in the reactions according to Scheme 2) were initially evaluated for cytotoxicity against commonly used human breast cancer cell line MCF7′ (fast-growth subclone), human lung epithelial carcinoma cell line A549 and etiologically non-cancer immortalized lung fibroblast cell line VA13 (WI38 subline 2RA). Cytotoxicity against immortalized human embryonic kidney cell line HEK293T, characterized by a high growth rate, was also studied regarding cytotoxicity against non-cancerous fast-growth cells. A standard MTT assay was performed; verubulin (1) served as a positive reference. The data obtained are presented in Table 1 (for dose–response curves, see Supplementary Materials).
Human breast cancer cell line MCF7′ and human lung adenocarcinoma cell line A549 were kindly provided by Dr. S. Dmitriev (Lomonosov Moscow State University), immortalized human fibroblast cell line VA13 (WI38 subline 2RA) was kindly provided by Dr. M. Rubtsova (Lomonosov Moscow State University), human embryonic kidney HEK293T cell line was kindly provided by Dr. E. Knyazhanskaya (Lomonosov Moscow State University). MCF7′, VA13, A549 and HEK293T cell lines were maintained in DMEM/F-12 (Thermo Fisher Scientific, Waltham, MA, USA) culture medium containing 10% fetal bovine serum (Thermo Fisher Scientific, Waltham, MA, USA) and 50 μg/mL penicillin and 0.05 mg/mL streptomycin at 37 °C (Thermo Fisher Scientific, Waltham, MA, USA) in 5% CO2. Cells were maintained at 37 °C in a humidified MCO-18AC incubator (Sanyo, Tokyo, Japan) supplied with 5% CO2. Cell cultures were tested for the absence of mycoplasma and validated by STR.
The cytotoxicity of the substances was tested using the 3-(4,5-dimethylthiazol-2-yl)2,5-diphenyl tetrazolium bromide (MTT) assay with some modifications. A total of 2500 cells per well for the MCF7′, HEK293T, A549 cell lines or 4000 cells per well for the VA-13 cell line were plated out in 135 μL of DMEM-F12 media (Gibco, Thermo Fisher Scientific, Waltham, MA, USA) in a 96-well plate and incubated in the 5% CO2 incubator for the first 20 h without treatment. Then, 15.8 μL of media–DMSO solutions of tested substances (final DMSO concentrations in the media were 0.5% or less) was added to the cells (triplicate each) and cells were treated for 64 h with 0.023 mg/L–50 mg/L (eight dilutions) of compounds 2f,n,o,r; 1.14 μg/L–2.5 mg/L (eight dilutions) of compounds 2a,b,d,g,h,k,l,p,q; 57.2 ng/L–125 μg/L (eight dilutions) of compounds 2e,i,j; 22.9 ng/L–50 μg/L (eight dilutions) of compounds 1,2c,m. Doxorubicin was used as a control substance. Then, the MTT reagent (Paneco LLC, Moscow, Russia) was added to cells up to a final concentration of 0.5 g/L (10 × stock solution in PBS was used) and incubated for 2 h at 37 °C in the incubator, under an atmosphere of 5% CO2. Then, the MTT solution was discarded, and 140 μL of DMSO (PharmaMed LLC, Moscow, Russia) was added. The plates were swayed on a shaker (120 rpm) to dissolve the formazan. The absorbance was measured using a microplate reader (VICTOR X5 Light Plate Reader, PerkinElmer, Waltham, MA, USA) at a wavelength of 555 nm (in order to measure formazan concentration). The results were used to construct dose–response graphs and to estimate IC50 values (IC50 is the concentration resulting in half of the maximal cytotoxic effect) with GraphPad Prism V, GraphPadSoftware, Inc., San Diego, CA, USA.

[2] = system: microtubules in carcinoma A549 cells; experiment: Immunofluorescent microscopy of microtubules; format: cell-based, human; conditions: 24 h, A549
Method: Since verubulin is known to stimulate microtubule disassociation, we performed an immunofluorescent microscopy study to determine the response of microtubule dynamics in carcinoma A549 cells to the treatment with representative compounds 2b,c,e. […] Aberrant cell morphology—contraction and rounding (Figure 2A,B) or contraction and elongation (Figure 2C)—was also observed.
A549 cells were seeded on coverslips (treated with poly-l-lysine at a concentration of 33 mg/L for an hour). Compounds were added up to the corresponding concentration after 24 h attachment and growth of the cells. Then, cells were incubated 24 h.
The cells were fixed with methanol (precooled in liquid nitrogen for 20 min), no additional permeabilization was performed. To prevent non-specific binding, cells were incubated with 4% BSA in PBS for one hour. Then, a solution of mouse monoclonal antibodies against alpha-tubulin cross-linked with Alexa 488 fluoroform (Thermo Fisher Scientific, Waltham, MA, USA, 32-2588) at a concentration of 5 μg/mL in 1% BSA solution in PBS was added to the cells, and the slides were incubated at +5 °C in a water chamber for 24 h. After the end of the incubation time, the cells were washed several times with PBS buffer solution and fixed on a glass slide with Moviol. Next day, cells were imaged with a ZEISS LSM 900 (ZEISS Microscopy, GmbH, Germany) and images processed with ImageJ.

[3] = system: tubulin (Tb) and microtubule-associated proteins (MAPs) from mouse brains; experiment: Tubulin + MAP polymerization assay; format: biochemical; conditions: GTP-dependent polymerization, read-out: IC50 of tubulin polymerization (initial rates, optical density at 355 nm)
HCT116 cells = experiment: Apoptosis induction, Annexin V / 7-AAD flow cytometry; format: cell-based, human
Method: Apoptosis is an important and active regulatory pathway of cell growth and proliferation. Annexin V is a calcium-dependent phospholipid-binding protein with a high affinity for phosphatidylserine (PS), a membrane component normally localized to the internal face of the cell membrane. Early in the apoptotic pathway, molecules of PS are translocated to the outer surface of the cell membrane where Annexin V can readily bind them.
After incubation, the cells were harvested by trypsinization, precipitated by centrifugation (3000 rpm), washed with cold PBS and recentrifuged. Aliquots of cells were processed as recommended in the Muse Annexin V& Dead Cell Kit (Luminex Corporation, Austin, TX, USA). The results were recorded on a Muse Cell Analyzer flow cytometer (Merck, Rahway, NJ, USA).

- IC50 [3]: 7.2 ± 1.9 µM
SMILES: COc1ccc(N(C)c2nc(C)nc3c2CCCC3)cc1 [Compound 2c, N-(4-methoxyphenyl)-N,2-dimethyl-5,6,7,8-tetrahydroquinazolin-4-amine]
- IC50 [1]: 2.9 ± 0.5 nM
- effect on microtubules (MTs) ([2]; 10 μM): full depolymerization of MTs
- effect on microtubules ([2]; 5–10 μM): pronounced or complete disruption of microtubules
- apoptotic cells, early plus late (HCT116 cells; 2 × IC50, 48 h, HCT116): 30%
- Live (viable cells) (HCT116 cells; human, 48 h): 69.45%
